Assay results published in patent US20220324835A1 (Nurix Therapeutics, Inc., priority 2018, published 2022).

Experiments:
[1] = biological target: T1, Cbl-b (Homo sapiens, UniProt Q13191); assay: Cbl-b inhibition assay (Cbl-b activity assay, FRET, Biological Example 1; 100 mM NaCl, 60 nM Src kinase); type: biochemical; settings: upper bound stated in text lists; read-out: IC50 values in the Cbl-b inhibition assay of Biological Example 1
In short: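 TR-FRET assay using N-terminal biotinylated Avi-tagged Cbl-b bound to streptavidin-terbium, Src kinase for Cbl-b phosphorylation, and UbcH5B irreversibly conjugated to Bodipy-Fluorescein-ubiquitin. Phosphorylated Cbl-b binds UbcH5B-Ub, bringing the fluorophores together; inhibition is read as loss of FRET signal.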

[2] = biological target: T1, Cbl-b; assay: Cbl-b activity assay (Cbl-b inhibition assay), TR-FRET of Cbl-b interaction with UbcH5B-Ub; type: biochemical
In short: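 TR-FRET readout of Cbl-b binding to Bodipy-fluorescein N-terminally labeled Ub conjugated to UbcH5B C85K, measured with compound present. After compound incubation, 60 nM Src kinase with 1 mM ATP and 5 mM MgCl2 (final) was added for 1.5 h, then a further 1 h incubation; asterisked values used 50 mM NaCl buffer and 30 nM Src.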

[3] = biological target: Cbl-b (residues 36-427) (Homo sapiens, UniProt Q13191); assay: Cbl-b binding assay (SPR, Biacore T200); settings: 20° C., 1:1 binding model
In short: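 Affinities derived from global 1:1 steady-state or kinetic fits of double-referenced, solvent-corrected SPR data, 20 °C, NeutrAvidin-capture chip. Compound series (top 100 or 50 μM, 8–10 points) injected 50 s, 90–180 s dissociation. Asterisked values used 50 mM instead of 100 mM NaCl and 30 nM Src kinase.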

[4] = assay buffer with 100 mM NaCl, 60 nM Src kinase, read-out: Cbl-b activity IC50
[5] = * assay buffer containing 50 mM NaCl instead of 100 mM NaCl and 30 nM Src kinase instead of 60 nM, read-out: Cbl-b activity IC50 (μM)*

T1 sequence (Q13191 36-427): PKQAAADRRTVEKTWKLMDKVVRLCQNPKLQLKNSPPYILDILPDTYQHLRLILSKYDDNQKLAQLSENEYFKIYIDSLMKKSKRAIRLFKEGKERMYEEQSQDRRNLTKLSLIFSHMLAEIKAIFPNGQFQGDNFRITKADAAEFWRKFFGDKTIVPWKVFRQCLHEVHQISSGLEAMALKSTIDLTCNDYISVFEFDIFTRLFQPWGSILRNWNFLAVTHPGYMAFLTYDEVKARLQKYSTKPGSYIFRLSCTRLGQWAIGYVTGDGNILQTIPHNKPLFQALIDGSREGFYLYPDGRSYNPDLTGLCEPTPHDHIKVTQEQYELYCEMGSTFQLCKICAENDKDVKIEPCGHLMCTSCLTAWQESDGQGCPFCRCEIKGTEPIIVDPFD
Sequence of Cbl-b (residues 36-427) (Q13191 36-427): as above

SMILES	IC50 [1] [µM]	IC50 [2, 4] [µM]	Kd [3] [µM]	IC50 [2, 5] [µM]
C[C@H](Sc1nncn1C)c1cccc(NC(=O)c2cc(C(=O)N3CC[C@@H](O)C3)ccn2)c1 [Compound 139, 4-((R)-3-hydroxypyrrolidine-1-carbonyl)-N-(3-((S)-1-((4-methyl-4H-1,2,4-triazol-3-yl)thio)ethyl)phenyl)picolinamide]	≤ 10	3 to 10	3 to 10	
CNc1cc(C(C)Sc2nncn2C)cc(N2Cc3c(cccc3C(F)(F)F)C2=O)n1 (stereo not shown) [Compound 180, 2-[6-(methylamino)-4-[1-[(4-methyl-1,2,4-triazol-3-yl)sulfanyl]ethyl]-2-pyridyl]-4-(trifluoromethyl)isoindolin-1-one]	≤ 10	1 to 3	1 to 3	
CCCOc1cc([C@H](C)Cc2nncn2C)cc(N2Cc3c(cccc3C(F)(F)F)C2=O)n1 [Example 688, (R)-2-(4-(1-(4-methyl-4H-1,2,4-triazol-3-yl)propan-2-yl)-6-propoxy-pyridin-2-yl)-4-(trifluoromethyl)isoindolin-1-one]	≤ 1	0.301 to 1	1 to 3	
C[C@H](Cc1nncn1C)c1cccc(NC(=O)c2cc(C(=O)N3C[C@@H](O)C[C@@H]3C)ccn2)c1 [Compound 223, 4-((2S,4S)-4-hydroxy-2-methylpyrrolidine-1-carbonyl)-N-(3-((R)-1-(4-methyl-4H-1,2,4-triazol-3-yl)propan-2-yl)phenyl)picolinamide]	≤ 10	3 to 10	3 to 10	
CC(=O)Nc1ccnc(C(=O)Nc2cccc([C@H](C)Sc3nncn3C)c2)c1 [Compound 59, (S)-4-acetamido-N-(3-(1-((4-methyl-4H-1,2,4-triazol-3-yl)thio)ethyl)phenyl)picolinamide]	≤ 10	1 to 3	3 to 10	
C[C@H](Sc1nncn1C)c1ccnc(NC(=O)c2ccc3c(n2)CCCC3)c1 [Compound 108, (S)-N-(4-(1-((4-methyl-4H-1,2,4-triazol-3-yl)thio)ethyl)pyridin-2-yl)-5,6,7,8-tetrahydroquinoline-2-carboxamide]	≤ 10	1 to 3	3 to 10	
C[C@H](Sc1nncn1C)c1cccc(NC(=O)c2nc(C(F)(F)F)ccc2N)c1 [Compound 49, (S)-3-Amino-N-(3-(1-((4-methyl-4H-1,2,4-triazol-3-yl)thio)ethyl)phenyl)-6-(trifluoromethyl)picolinamide]	≤ 10	1 to 3	1 to 3	
C[C@@H](Cc1nncn1C)c1ccnc(N2Cc3c(cccc3C(F)(F)F)C2=O)c1 [Compound 304a, (S)-2-(4-(1-(4-methyl-4H-1,2,4-triazol-3-yl)propan-2-yl)pyridin-2-yl)-4-(trifluoromethyl)isoindolin-1-one]	≤ 10	3 to 10	> 10	
C[C@H](Cc1nncn1C)c1cccc(NC(=O)c2cc(O[C@@H]3CC[C@H](O)C3)ccn2)c1 [Compound 207, 4-((1R,3S)-3-hydroxycyclopentyloxy)-N-(3-((R)-1-(4-methyl-4H-1,2,4-triazol-3-yl)propan-2-yl)phenyl)picolinamide]	≤ 1	0.301 to 1	1 to 3	
C[C@H](Sc1nncn1C)c1cccc(NC(=O)c2cc(NS(=O)(=O)CCO)ccn2)c1 [Compound 86, 4-(2-hydroxyethylsulfonylamino)-N-[3-[(1S)-1-[(4-methyl-1,2,4-triazol-3-yl)sulfanyl]ethyl]phenyl]pyridine-2-carboxamide]	≤ 10	3 to 10	> 10	
C[C@H](Sc1nncn1C)c1cccc(NC(=O)c2cc(C(F)(F)F)cc(Cl)n2)c1 [Compound 66, (S)-6-chloro-N-(3-(1-((4-methyl-4H-1,2,4-triazol-3-yl)thio)ethyl)phenyl)-4-(trifluoromethyl)picolinamide]	≤ 10	1 to 3	3 to 10	
CC(Sc1nncn1C)c1cc(NC2CCOC2)nc(N2Cc3c(cccc3C(F)(F)F)C2=O)c1 (stereo not shown) [Compound 179, 2-(4-(1-((4-methyl-4H-1,2,4-triazol-3-yl)thio)ethyl)-6-((tetrahydrofuran-3-yl)amino)pyridin-2-yl)-4-(trifluoromethyl)isoindolin-1-one]	≤ 10	3 to 10	3 to 10	
C[C@H](Sc1nncn1C)c1ccnc(NC(=O)c2cccc(C(F)(F)F)n2)c1 [Compound 102b, (S)-N-(4-(1-((4-methyl-4H-1,2,4-triazol-3-yl)thio)ethyl)pyridin-2-yl)-6-(trifluoromethyl)picolinamide]	≤ 10	1 to 3	1 to 3	1 to 3
C[C@H](Cc1nncn1C)c1cccc(NC(=O)c2cc(C(=O)N3C[C@H](O)[C@@H](F)C3)ccn2)c1 [Compound 235, 4-[(3S,4S)-3-fluoro-4-hydroxypyrrolidine-1-carbonyl]-N-[3-[(2R)-1-(4-methyl-4H-1,2,4-triazol-3-yl)propan-2-yl]phenyl]pyridine-2-carboxamide]	≤ 10	1 to 3	3 to 10	
Cc1cc(C(=O)Nc2cccc([C@H](C)Sc3nncn3C)c2)ncc1Cl [Compound 34, (S)-5-Chloro-4-methyl-N-(3-(1-((4-methyl-4H-1,2,4-triazol-3-yl)thio)ethyl)phenyl)picolinamide]	≤ 0.5	0.301 to 1	1 to 3	0.301 to 1
C[C@H](Sc1nncn1C1CC1)c1cccc(NC(=O)c2cc3ccccc3cn2)c1 [Compound 99, (S)-N-(3-(1-((4-cyclopropyl-4H-1,2,4-triazol-3-yl)thio)ethyl)phenyl)isoquinoline-3-carboxamide]	≤ 1	0.301 to 1	3 to 10	3 to 10
C[C@H](Sc1nncn1C)c1cccc(NC(=O)c2cc(C(=O)N3C[C@@H](O)C[C@@H]3C)ccn2)c1 [Compound 154, 4-((2S,4S)-4-hydroxy-2-methylpyrrolidine-1-carbonyl)-N-(3-((S)-1-((4-methyl-4H-1,2,4-triazol-3-yl)thio)ethyl)phenyl)picolinamide]	≤ 10	3 to 10	> 10	
C[C@H](Sc1nncn1C)c1ccnc(NC(=O)c2ccc3ccccc3n2)c1 [Compound 112, (S)-N-(4-(1-((4-methyl-4H-1,2,4-triazol-3-yl)thio)ethyl)pyridin-2-yl)quinoline-2-carboxamide]	≤ 1	0.301 to 1	3 to 10	1 to 3
CCOc1cccc(C(=O)Nc2cccc([C@H](C)Sc3nncn3C)c2)n1 [Compound 90, 6-Ethoxy-N-[3-[(1S)-1-[(4-methyl-1,2,4-triazol-3-yl)sulfanyl]ethyl]phenyl]pyridine-2-carboxamide]	≤ 10	1 to 3	3 to 10	
C[C@@H](Cc1nncn1C)c1cccc(NC(=O)c2cc(S(C)(=O)=O)cc(C3CC3)n2)c1 [Compound 198b]	≤ 10	3 to 10	3 to 10	
C[C@H](Sc1nncn1C)c1cccc(N2Cc3cc(Cl)ccc3C2=O)c1 [Compound 164, (S)-5-chloro-2-(3-(1-((4-methyl-4H-1,2,4-triazol-3-yl)thio)ethyl)phenyl)isoindolin-1-one]	≤ 1	0.301 to 1	1 to 3	
C[C@H](Sc1nncn1C)c1cccc(NC(=O)c2cc(C(=O)N3C[C@H](O)[C@@H](O)C3)ccn2)c1 [Compound 155, 4-[[(3S,4S)-3,4-dihydroxypyrrolidin-1-yl]carbonyl]-N-[3-[(1S)-1-[(4-methyl-4H-1,2,4-triazol-3-yl)sulfanyl]ethyl]phenyl]pyridine-2-carboxamide]	≤ 10	1 to 3	3 to 10	
C[C@H](Cc1nncn1C)c1cccc(NC(=O)c2cc(C(=O)N3CCC(CO)C3)ccn2)c1 (stereo partly drawn) [Compound 245, 4-(3-(hydroxymethyl)pyrrolidine-1-carbonyl)-N-(3-((R)-1-(4-methyl-4H-1,2,4-triazol-3-yl)propan-2-yl)phenyl)picolinamide]	≤ 10	1 to 3	3 to 10	
C[C@H](Sc1nncn1C)c1cccc(NC(=O)c2cc(C(=O)N3CCC(O)CC3)ccn2)c1 [Compound 145, (S)-4-(4-hydroxypiperidine-1-carbonyl)-N-(3-(1-((4-methyl-4H-1,2,4-triazol-3-yl)thio)ethyl)phenyl)picolinamide]	≤ 10	1 to 3	3 to 10	
C[C@H](Cc1nncn1C)c1cccc(NC(=O)c2cc(C(=O)N[C@@H]3CCNC3)ccn2)c1 [Compound 247, N2-[3-[(2R)-1-(4-methyl-4H-1,2,4-triazol-3-yl)propan-2-yl]phenyl]-N4-[(3R)-pyrrolidin-3-yl]pyridine-2,4-dicarboxamide]	≤ 10	3 to 10	3 to 10	
C[C@H](Sc1nncn1C)c1cccc(NC(=O)c2cccc3scnc23)c1 [Compound 88, N-[3-[(1 S)-1-[(4-methyl-1,2,4-triazol-3-yl)sulfanyl]ethyl]phenyl]-1,3-benzothiazole-4-carboxamide]	≤ 10	1 to 3	3 to 10	
